Earlier results on 18 substances are cited in US4761398A, “Method of inducing birds to molt” (Embrex, Inc., priority 1986, dated 1988).

Where no end group is shown, it is not given here.

The target of the first data set is T1, LHRH receptor (Homo sapiens, UniProt P30968).
T1 sequence (P30968 1-328): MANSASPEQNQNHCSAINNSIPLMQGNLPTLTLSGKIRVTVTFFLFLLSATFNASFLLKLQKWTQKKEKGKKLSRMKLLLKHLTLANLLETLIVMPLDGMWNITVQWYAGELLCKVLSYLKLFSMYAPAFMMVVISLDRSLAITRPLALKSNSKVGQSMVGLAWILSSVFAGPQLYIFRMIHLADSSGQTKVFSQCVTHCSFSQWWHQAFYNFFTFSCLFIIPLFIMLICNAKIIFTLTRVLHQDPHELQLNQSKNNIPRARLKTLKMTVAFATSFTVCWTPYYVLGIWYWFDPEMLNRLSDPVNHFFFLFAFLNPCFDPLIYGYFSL
As to conditions: 6-substituted analogs, Nestor et al.; cited from earlier work.
Take [D-Cha^6 ]LHRH: the “potency relative to LHRH” value is on record as “more potent than LHRH”.

[D-Dca^6 ]LHRH: the “potency relative to LHRH” value is reported as “more potent than LHRH”.

Consider [D-Mtf^6 ]LHRH, for which the “potency relative to LHRH” value is recorded as “more potent than LHRH”.

With [D-Nal(1)^6 ]LHRH, the “potency relative to LHRH” value is “more potent than LHRH”.

In the case of [D-Nal(2)^6 ]LHRH, the “potency relative to LHRH” value is reported as “more potent than LHRH”.

As to [D-Pfp^6 ]LHRH, the “potency relative to LHRH” value is recorded as “more potent than LHRH”.

Regarding [D-Tmo^6 ]LHRH, the “potency relative to LHRH” value is reported as “more potent than LHRH”.

Take [D-Tmp^6 ]LHRH: the “potency relative to LHRH” value is “more potent than LHRH”.

[D-Trp^6, Pro^9 -NHEt]LHRH: the “potency relative to LHRH” value was “more potent than LHRH”.

With [D-ptf^6 ]LHRH, the “potency relative to LHRH” value was “more potent than LHRH”.

Staying with this data set, now noted: Nestor et al.; cited from earlier work.
As for [D-Dca^6 ]LHRH, the “agonistic activity in words” value is on record as “activity dropped off”.

Regarding [D-Nal(2)^6 ], aza-Gly^10 ]LHRH, the “agonistic activity in words” value was “one of the most potent LHRH agonists known”.

The target in the next data set is T1, LHRH receptor. The note with it: literature review; cited from earlier work.
On to “Leu^3 -LHRH (QHLSYGLRPG; ends and bridges not checked; UniProt P01148 24-33, looked up, variant W3L)”, for which the antagonistic activity entry is “some antagonistic activity”.

With [desHis^2, D-Ala^6 ] LHRH, the antagonistic activity entry is listed as “found to have antagonistic activity”.

As to [desHis^2, D-Ala^6, desGly^10 ] LHRHEA, the “agonistic activity of antagonist analogs” value was “showed some agonistic activity” and the antagonistic activity entry is given as “found to have antagonistic activity”.

As for [desHis^2, D-Phe^6 ]LHRH, the antagonistic activity result was “increased antagonistic activity”.

“[desHis^2, Leu^3, D-Ala^6, desGly^10 ] LHRHEA”: the “agonistic activity of antagonist analogs” value is given as “showed some agonistic activity” and the antagonistic activity entry was “found to have antagonistic activity”.

Consider [desHis^2, Leu^3, desGly^10 ] LHRHEA, for which the antagonistic activity entry was “found to have antagonistic activity”.

Take [desHis^2, desGly^10 ] LHRHEA: the antagonistic activity entry is reported as “significant antagonistic activity”.
